In patent US4820834A, “Benzodiazepine analogs” (priority 1987, dated 1989) one finds IC50 data, which are given here for 21 compounds.

As usually defined, the pIC50 is the negative decadic logarithm of the IC50, by convention in mol/L.

Assay [1] addresses T1, Gastrin receptor (gastric glands) (Cavia porcellus, UniProt H0VZC5).
T1 construct: The washed guinea pig gastric glands prepared as above were resuspended; from tissue; host or cells: guinea pig gastric mucosal glands (male Hartley)
T1 sequence (H0VZC5 1-426): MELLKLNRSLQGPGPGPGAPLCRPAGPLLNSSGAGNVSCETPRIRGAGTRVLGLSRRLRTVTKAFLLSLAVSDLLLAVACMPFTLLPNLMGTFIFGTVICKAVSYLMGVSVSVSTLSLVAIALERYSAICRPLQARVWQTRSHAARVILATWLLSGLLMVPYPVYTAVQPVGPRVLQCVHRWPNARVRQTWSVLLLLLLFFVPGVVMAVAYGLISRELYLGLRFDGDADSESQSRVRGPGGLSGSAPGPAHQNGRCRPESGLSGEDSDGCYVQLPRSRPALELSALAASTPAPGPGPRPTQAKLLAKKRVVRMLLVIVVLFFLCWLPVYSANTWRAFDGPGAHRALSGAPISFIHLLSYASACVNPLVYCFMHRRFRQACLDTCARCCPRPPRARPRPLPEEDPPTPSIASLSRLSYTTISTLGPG
Nature of the assay: Gastrin Receptor Binding in Guinea Pig Gastric Glands. The arrangement: species or system guinea pig (male Hartley).

Assay [2] has as its target T2, CCK receptor (brain, cerebral cortex) (Cavia porcellus, UniProt H0VZC5).
T2 construct: Cerebral cortex was dissected and used as a receptor source; from tissue; host or cells: guinea pig cerebral cortex membranes (male Hartley)
T2 sequence (H0VZC5 1-426): T1 sequence (H0VZC5 1-426)
Kind of assay: biochemical. Format: binding, Male Hartley guinea pigs. Here is the method: 2. CCK Recepto Binding (Brain)
CCK-33 was radiolabeled and the binding was Performed according to the description for the Pancreas method with modifications according to Saito et al., J. Neurochem.
Cerebral cortex was dissected and used as a receptor source. Each gram of fresh guinea pig brain tissue was homogenized in 10 ml of Tris/Trizma buffer with a Brinkman polytron PT-10. The homogenates were centrifuged at 42,000 g for 15 minutes. Pellets were resuspended in Tris Buffer, centrifuged as above and resuspended in 200 volumes of binding assay buffer (10 mM N-2-hydroxyethyl-piperazine-N'-2-ethane sulfonic acid (HEPES), 5 mM MgCl2, 0.25 mg/ml bacitracin, 1 mM ethylene glycol-bis-(β-aminoethylether-N,N'-tetraacetic acid) (EGTA), and 0.4% bovine serum albumin (BSA)). […] All assays were run in duplicate or triplicate. The reaction mixtures were incubated at 25° C. for 2 hours and centrifuged in a Beckman Microfuge (4 minutes) immediately after adding 1 ml of ice-cold incubation buffer. The supernatant was aspirated and discarded, pellets were counted with a Beckman gamma 5000.

[3] abbreviates: ^125 I-gastrin, 25° C., 30 minutes, read-out: IC50 ^125 I-Gastrin Gastric Glands.
Setting [4] is: IC50 ^125 I-CCK Brain, guinea pig cerebral cortex, ^125 I-CCK-33, 25° C., 2 hours.
[5] abbreviates: IC50 ^125 I-Gastrin Gastric Glands, 25° C., 30 minutes.

Each structure is given as a SMILES string. pIC50: −log10 of the molar value. Like-named read-outs stand apart in the source and are kept apart here.

`CC(C)(C)OC(=O)N[C@@H](Cc1ccccc1)C(=O)NC1N=C(c2ccccc2)c2ccccc2NC1=O` (mixture of isomers) [Example 82, 3(RS)-(2(S)-tert-Butoxycarbonylamino-3-phenylpropanoyl-amino)-1,3-dihydro-5-phenyl-2H-1,4-benzodiazepin-2-one]: the pIC50 in assay [1] (setting [3]) was less than 4.00; in assay [2] (setting [4]), 4.92.

`CN1C(=O)C(NC(=O)[C@H](Cc2ccccc2)NC(=O)OC(C)(C)C)N=C(c2ccccc2)c2ccccc21` (mixture of isomers) [Example 83, 3(RS)-(2(S)-tert-Butoxycarbonylamino-3-phenylpropanoyl-amino)-1,3-dihydro-1-methyl-5-phenyl-2H-1,4-benzodi-azepin-2-one]: the negative-log IC50 (pIC50) in assay [1] (setting [3]) is 4.59; in assay [2] (guinea pig cerebral cortex, ^125 I-CCK-33, 25° C., 2 hours; read-out: IC50 ^125 I-CCK Brain), 4.89. Turning to `O=C(NCC1N=C(c2ccccc2F)c2ccccc2NC1=O)OCc1ccccc1` (racemic) [Example 66, 1,3-Dihydro-5-(2'-fluorophenyl)-3(RS)-(benzyloxycarbonyl)aminomethyl-2H-1,4-benzodiazepin-2-one], the figures for the pIC50 in assay [1] (setting [5]) and in assay [2] (setting [4]) were 5.13 and 4.00, respectively. In the case of `O=C(NCC1N=C(c2ccccc2F)c2ccccc2NC1=O)c1ccsc1` (racemic) [Example 67, 1,3-Dihydro-5-(2'-fluorophenyl)-3(RS)-(3-thiophene-carbonyl)aminomethyl-2H-1,4-benzodiazepin-2-one], the pIC50 in assay [1] (setting [5]) was 4.33; in assay [2] (setting [4]), 4.00.

`O=C(NCC1N=C(c2ccccc2F)c2ccccc2NC1=O)c1cc2ccccc2[nH]1` (racemic) [Example 68, 1,3-dihydro-5-(2-fluorophenyl)-3(RS)-(2-indolecarbonylaminomethyl)-2H-1,4-benzodiazepin-2-one]: the negative logarithm of the IC50 (pIC50) in assay [1] (setting [5]) is less than 4.00; in assay [2] (setting [4]) it was 4.52. Taken in the same sequence, the figures for `O=C1Nc2ccccc2C(c2ccccc2F)=NC1CNCC1N=C(c2ccccc2F)c2ccccc2NC1=O` (racemic) [Example 69, 1,3-Dihydro-3'-(RS)-[3'-(RS)-(1,3-dihydro-5-(2'-fluorophenyl)-2H-1,4-benzodiazepin-2-one)-3-yl]methylaminomethyl-5-(2'-fluorophenyl)-2H-1,4-benzodiazepin-2-one] were 3.46 and less than 4.00. Consider `O=C(NC1N=C(c2ccccc2)c2ccccc2NC1=O)c1cc2ccccc2[nH]1` (racemic) [Example 73, 3(RS)-1,3-Dihydro-(2-indolecarbonylamino)-5-phenyl-2H-1,4-benzodiazepin-2-one], for which the pIC50 in assay [1] (setting [5]) was 5.40; in assay [2] (setting [4]), 5.10. Take `O=C1Nc2ccccc2C(c2ccccc2)=NC1NCCc1c[nH]c2ccccc12` (racemic) [Example 74, 1,3-Dihydro-3(RS)-[2-(3-indolyl)ethyl]amino-5-phenyl-2H-1,4-benzodiazepin-2-one]: the negative logarithm of the IC50 (pIC50) in assay [1] (setting [5]) was less than 4.00; in assay [2] (setting [4]), 4.00. For `O=C(CCc1c[nH]c2ccccc12)NC1N=C(c2ccccc2)c2ccccc2NC1=O` (racemic) [Example 75, 3(RS)-[3-(3-indolyl)propionylamino]-1,3-dihydro-5-phenyl-2H-1,4-benzodiazepin-2-one] the same measures were 5.33 and 4.00. For `O=C(Cc1c[nH]c2ccccc12)NC1N=C(c2ccccc2)c2ccccc2NC1=O` (racemic) [Example 76, 3(RS)-(3-indoleacetylamino)-1,3-dihydro-5-phenyl-2H-1,4-benzodiazepin-2-one], the values for the pIC50 in assay [1] (setting [5]) and in assay [2] (setting [4]) were 4.49 and 4.96, respectively. `O=C(O)CN1C(=O)C(NC(=O)c2cc3ccccc3[nH]2)N=C(c2ccccc2)c2ccccc21` (racemic) [Example 78, 1-Carboxymethyl-1,3-dihydro-3(RS)-(2-indolearbonyl-amino)-5-phenyl-2H-1,4-benzodiazepin-2-one]: the pIC50 in assay [1] (setting [5]) was 6.19; in assay [2] (setting [4]), 5.26. Regarding `CN1C(=O)C(NC(=O)c2ccc(Cl)cc2)N=C(c2ccccc2F)c2ccccc21` (racemic) [Example 80, 1,3-Dihydro-1-methyl-3(RS)-(4-chlorophenylcarbonyl)-amino-5-(2-fluoroohenyl)-2H-1,4-benzodiazeoin-2-one], the pIC50 was 5.54 in assay [1] (setting [3]) and 5.47 in assay [2] (setting [4]). Consider `CN1C(=O)C(NC(=O)c2cc3ccccc3[nH]2)N=C(c2ccccc2F)c2ccccc21` (racemic) [Example 81a, 1,3-Dihydro-5-(2-fluorophenyl)-3(RS)-(2-indolecarbonyl-amino)-1-methyl-2H-1,4-benzodiazepin-2-one], for which the pIC50 in assay [1] (setting [3]) is 6.72; in assay [2] (setting [4]) it was 6.52. Turning to `CN1C(=O)C(NC(=O)c2cc3ccccc3n2C)N=C(c2ccccc2F)c2ccccc21` (racemic) [Example 81b, 1,3-Dihydro-5-(2-fluorophenyl)-1-methyl-3(RS)-[2'-(1-methylindole)carbonylamino]-2H-1,4-benzodiazepin-2-one], the pIC50 is 5.80 in assay [1] (setting [5]) and 6.00 in assay [2] (setting [4]). Regarding `O=C(CCCc1c[nH]c2ccccc12)NC1N=C(c2ccccc2)c2ccccc2NC1=O` (racemic) [Example 97, 3(RS)-[4-(3-Indole)butyrylamino]-1,3-dihydro-5-phenyl-2H-1,4-benzodiazepin-2-one], the pIC50 is 3.70 in assay [1] (setting [5]) and less than 4.00 in assay [2] (setting [4]). As for `O=C(NCC1CNc2ccccc2C(c2ccccc2F)=N1)OCc1ccccc1` (racemic) [Example 98, 1,3-Dihydro-3(RS)-(benzyloxycarbonyl)aminomethyl-5-(2-fluorophenyl)-2H-1,4-benzodiazepine], the pIC50 in assay [1] (setting [5]) is 4.07; in assay [2] (setting [4]), 4.00.

As to `O=C(NCC1CNc2ccccc2C(c2ccccc2F)=N1)c1ccsc1` (racemic) [Example 99, 1,3-Dihydro-3(RS)-[3'-(thiophene)carbonyl]amino-methyl-5-(2-fluorophenyl)-2H-1,4-benzodiazepine], the negative logarithm of the IC50 (pIC50) was 4.10 in assay [1] (setting [5]) and 4.13 in assay [2] (setting [4]).

For the compound `O=C(NCC1CNc2ccccc2C(c2ccccc2F)=N1)c1cc2ccccc2[nH]1` (racemic) [Example 100, 1,3-Dihydro-3(RS)-(2'-indolecarbonyl)aminomethyl-5-(2-fluorophenyl)-2H-1,4-benzodiazepine], the pIC50 in assay [1] (read-out: IC50 ^125 I-Gastrin Gastric Glands, 25° C., 30 minutes) is 4.66; in assay [2] (read-out: IC50 ^125 I-CCK Brain; guinea pig cerebral cortex, ^125 I-CCK-33, 25° C., 2 hours), 4.47. Take `O=C(NC1N=C(c2ccccc2F)c2ccccc2NC1=O)c1cc2ccccc2[nH]1` (racemic) [Example 105, 1,3-Dihydro-5-(2-fluorophenyl)-3-(RS)-(2-indolecarbonylamino)-2H-1,4-benzodiazeoin-2-one]: the negative logarithm of the IC50 (pIC50) in assay [1] (setting [5]) is 5.34; in assay [2] (setting [4]), 5.52.

In turn, `CC(C)C[C@@H](NC(=O)OC(C)(C)C)C(=O)N1CC(C[C@H]2N=C(c3ccccc3F)c3ccccc3NC2=O)c2ccccc21` (stereo partly drawn) [Example 22, 1,3-Dihydro-5-(2-fluorophenyl)-3(R)-[3'-β-(1'-t-Boc-D-leucyl)-indolenyl]methyl-2H-1,4-benzodiazepin-2-one] had a pIC50 in assay [2] (setting [4]) of less than 4.00. As for `CC(C)C[C@H](NC(=O)OC(C)(C)C)C(=O)N1CC(C[C@H]2N=C(c3ccccc3F)c3ccccc3NC2=O)c2ccccc21` (stereo partly drawn) [Example 23, 1,3-Dihydro-5-(2-fluorophenyl)-3(R)-[3'-α-(1'-t-Boc-L-leucyl)-indolenyl]methyl-2H-1,4-benzodiazepin-2-one], the negative logarithm of the IC50 (pIC50) in assay [2] (setting [4]) is less than 4.00.
